How the values were obtained:
[1] = Phase 1 dose escalation: DLTs and MTD; format: in vivo
Procedure: This multicentre, open-label, phase 1 study comprised two phases: a dose-escalation phase and an expansion phase. In the dose-escalation phase, a modified 3+3 design was employed to determine the MTD of binimetinib administered orally twice daily (BID) in a 21-day treatment cycles. A single dose of binimetinib was administered on day 1 and then BID continuously beginning on day 2 of cycle 1. A starting dose of 30 mg BID was utilised for the dose-escalation phase. The dose was escalated in cohorts of at least three evaluable patients at 45 mg BID, 60 mg BID, and 80 mg BID until MTD was determined. Patients in the expansion phase received continuous BID treatment with binimetinib beginning on day 1 of cycle 1 at the MTD determined in the dose-escalation phase. Patients were instructed to take BID doses 12±2 h apart with water, irrespective of food.
Dose-limiting toxicities (DLTs) were any adverse event (AE) not clearly attributable to the patient's disease, including haematologic toxicities of grade 4 neutropenia for ⩾5 days, febrile neutropenia, grade 4 thrombocytopenia, and grade 3 thrombocytopenia with bleeding. […]

[2] = test system: biliary cancer, KRAS- or BRAF-mutant colorectal cancer; experiment: Kaplan–Meier PFS and OS, expansion phase cohorts; format: in vivo, human
Procedure: All patients who received ⩾1 dose of binimetinib were included in the safety analysis. Patients in the safety analysis who had ⩾1 measurable lesion at baseline and at least 1 post-baseline disease assessment were evaluable for efficacy. Kaplan–Meier estimates of progression-free survival (PFS) and overall survival (OS) were performed for patients in the expansion phase ([Kaplan and Meier, 1958]) using SAS Version 9.2 (SAS Institute Inc., Cary, NC, USA).

[3] = test system: C-reactive protein, interferon, IL-10, IL-12p70, IL-1β, IL-6, or IL-8; experiment: Serum cytokines other than TNF-α; format: in vivo, human
[4] = test system: xenograft models derived from melanoma, colorectal cancer, NSCLC, fibrosarcoma, cholangiocarcinoma, and pancreatic cancer; design: method as in Lee et al, 2010; Woessner et al, 2010; settings: non-clinical data, ref Lee et al, 2010, Woessner et al; cited from earlier work
[5] = BRAF-mutant colorectal cancer cohort (45 mg BID)
[6] = KRAS-mutant colorectal cancer 45 mg dose cohort
[7] = KRAS-mutant colorectal cancer 60 mg dose cohort

Structure (SMILES): Cn1cnc2c(F)c(Nc3ccc(Br)cc3F)c(C(=O)NOCCO)cc21 [binimetinib]
- Recommended phase 2 dose ([1]; human, in vivo, 21 day): 45 mg
- Maximum tolerated dose (MTD) ([1]; orally twice daily (BID), 21-day cycles, patients with advanced solid tumours): 60 mg
- Median OS [2, 5]: 7.1 months
- Median PFS [2, 5]: 1.4 months
- Median OS [2, 6]: 4.7 months
- Median PFS [2, 6]: 1.5 months
- Median OS [2, 7]: 9.1 months
- Median PFS [2, 7]: 3.5 months
- Median OS ([2]; biliary cohort (60 mg BID)): 4.8 months
- Median PFS ([2]; biliary cohort (60 mg BID)): 2.1 months
- Changes in C-reactive protein, interferon, IL-10, IL-12p70, IL-1β, IL-6, or IL-8 [3]: no notable changes
- Anti-tumour activity in xenograft models [4]: broad anti-tumour activity

— PMC5344293, “A phase 1 dose-escalation and expansion study of binimetinib (MEK162), a potent and selective oral MEK1/2 inhibitor” (British Journal of Cancer, 2017)
